≈ marks a conversion by molar mass, not a printed value. Where “and” joins values, the source holds several entries; their conditions need not be identical. Equal entries are not always repeated. Where two headings read alike, the source gives them in different places.
How the values were obtained:
Trichomonas vaginalis [1] = test: Trichomonas vaginalis assay (MLC, aerobic and anaerobic); format: cell-based
Experimental: (§1) All isolates were treated with either bacitracin or zinc bacitracin.
(§2) Prior to being diluted with the medium, the bacitracins were initially solubilized in water to 250 mg/ml. The zinc salt was solubilized in acidified water (60 μl HC1/ml). Duplicate plates of each isolate were prepared. one set of plates was exposed to an aerobic environment; and, the second set was exposed to an anaerobic environment. An Oxoid HP 11 anaerobic gas chamber and BR 38 gas generating kit were used to produce the anaerobic environment.

E. histolvtica = settings: fifty South African patients; 2.4 g daily for 5 days; cited from earlier work
Tritrichomonas gallinae = Tritrichomonas gallinae assay (MLC); format: cell-based; settings: isolate GH85; anaerobic
Experimental: A single T. gallinae isolate was collected and treated with bacitracin or zinc bacitracin in accordance with the procedure of Example IV. Duplicate plates of the isolate were prepared. one plate was exposed to an aerobic environment. The second plate was exposed to an anaerobic environment.

Giardia lamblia = format: cell-based; settings: Portland isolate; anaerobic; 24 hours; two lines of values
Experimental: A Portland isolate of G. lamblia was treated with bacitracin and zinc bacitracin according to the procedure of Example IV. An Oxoid HP 11 anaerobic gas chamber and BR 38 gas generating kit were used to produce an anaerobic environment. […] The parasites were incubated in the presence of the treating reagent for 2 4 hours. The viability of the parasites was based on morphology and motility.

T. foetus = settings: cited from earlier work; for side effects: in vivo
Trichomonas vaginalis [2] = test: Trichomonas vaginalis assay of other divalent metal salts of bacitracin (MIC); format: cell-based
Experimental: as §1, §2
The procedure of Example IV was repeated, substituting bacitracin salts of the following metals for zinc bacitracin: nickel, cadmium, cobalt, manganese, copper and iron. The MLCs of the bacitracin salts were out of range. However, the MICs indicate that, with the exception of ferrous bacitracin, complexation with a divalent metal salt enhanced the activity of bacitracin.

With `Cc1ncc([N+](=O)[O-])n1CCO` [Metronidazole] the MLC (Trichomonas vaginalis [1]; isolate 1031, metronidazole-sensitive, aerobic) was 40 µg/mL (≈ 234 µM), the MLC (Trichomonas vaginalis [1]; isolate 1031, metronidazole-sensitive, anaerobic) was 4 µg/mL (≈ 23.4 µM) and the MLC (Trichomonas vaginalis [1]; isolate 1043, metronidazole-sensitive, aerobic) was 20 µg/mL (≈ 117 µM). For the same compound, the MLC (Trichomonas vaginalis [1]; isolate 1043, metronidazole-sensitive, anaerobic) was under 1 µg/mL, the MLC (Trichomonas vaginalis [1]; isolate 1044, metronidazole-sensitive, aerobic) was under 10 µg/mL and the MLC (Trichomonas vaginalis [1]; isolate 1044, metronidazole-sensitive, anaerobic) was under 1 µg/mL. It also gave an MLC (Trichomonas vaginalis [1]; isolate 1064, metronidazole-sensitive, anaerobic) of under 1 µg/mL, an MLC (Trichomonas vaginalis [1]; isolate 1065, metronidazole-sensitive, aerobic) of under 10 µg/mL and an MLC (Trichomonas vaginalis [1]; isolate 1065, metronidazole-sensitive, anaerobic) of under 1 µg/mL. For the same compound, the MLC (Trichomonas vaginalis [1]; isolate 1165, metronidazole-sensitive, aerobic) was 40 µg/mL (≈ 234 µM), the MLC (Trichomonas vaginalis [1]; isolate 1165, metronidazole-sensitive, anaerobic) was under 1 µg/mL and the MLC (Trichomonas vaginalis [1]; isolate 1910, metronidazole-sensitive, aerobic) was 40 µg/mL (≈ 234 µM). The MLC (Trichomonas vaginalis [1]; isolate 1910, metronidazole-sensitive, anaerobic) was 2 µg/mL (≈ 11.7 µM), the MLC (Trichomonas vaginalis [1]; isolate 6950, metronidazole-sensitive, aerobic) was 20 µg/mL (≈ 117 µM) and the MLC (Trichomonas vaginalis [1]; isolate 6950, metronidazole-sensitive, anaerobic) was 2 µg/mL (≈ 11.7 µM). It also gave an MLC (Trichomonas vaginalis [1]; isolate 89532.2, metronidazole-insensitive, aerobic) of 200 µg/mL (≈ 1170 µM), an MLC (Trichomonas vaginalis [1]; isolate 89532.2, metronidazole-insensitive, anaerobic) of 2 µg/mL (≈ 11.7 µM) and an MLC (Trichomonas vaginalis [1]; isolate 90576, metronidazole-insensitive, aerobic) of 80 µg/mL (≈ 467 µM). For the same compound, the MLC (Trichomonas vaginalis [1]; isolate 90576, metronidazole-insensitive, anaerobic) was 2 µg/mL (≈ 11.7 µM), the MLC (Trichomonas vaginalis [1]; isolate CDC85, metronidazole-insensitive, aerobic) was 200 µg/mL (≈ 1170 µM) and the MLC (Trichomonas vaginalis [1]; isolate CDC85, metronidazole-insensitive, anaerobic) was 20 µg/mL (≈ 117 µM). The MLC (Trichomonas vaginalis [1]; isolate IR78, metronidazole-insensitive, aerobic) was 200 µg/mL (≈ 1170 µM), the MLC (Trichomonas vaginalis [1]; isolate IR78, metronidazole-insensitive, anaerobic) was 4 µg/mL (≈ 23.4 µM) and the MLC (Trichomonas vaginalis [1]; isolate PHLS289, metronidazole-insensitive, aerobic) was 60 µg/mL (≈ 351 µM). For the same compound, the MLC (Trichomonas vaginalis [1]; isolate PHLS289, metronidazole-insensitive, anaerobic) was 8 µg/mL (≈ 46.7 µM), the MLC (Trichomonas vaginalis [1]; isolate STH-1, metronidazole-insensitive, aerobic) was 60 µg/mL (≈ 351 µM) and the MLC (Trichomonas vaginalis [1]; isolate STH-1, metronidazole-insensitive, anaerobic) was 8 µg/mL (≈ 46.7 µM). For the same compound, the MLC (Trichomonas vaginalis [1]; isolate UCH-1, metronidazole-sensitive, aerobic) was 40 µg/mL (≈ 234 µM), the MLC (Trichomonas vaginalis [1]; isolate UCH-1, metronidazole-sensitive, anaerobic) was 4 µg/mL (≈ 23.4 µM) and the MLC (Trichomonas vaginalis [1]; isolate UCH-2, metronidazole-sensitive, aerobic) was under 10 µg/mL. The MLC (Trichomonas vaginalis [1]; isolate UCH-2, metronidazole-sensitive, anaerobic) was 2 µg/mL (≈ 11.7 µM), the MLC (Trichomonas vaginalis [1]; isolate UCH-M1, metronidazole-sensitive, aerobic) was 20 µg/mL (≈ 117 µM) and the MLC (Trichomonas vaginalis [1]; isolate UCH-M1, metronidazole-sensitive, anaerobic) was 4 µg/mL (≈ 23.4 µM). The MLC (Trichomonas vaginalis [1]; isolate UOB-1, metronidazole-sensitive, aerobic) was 20 µg/mL (≈ 117 µM), the MLC (Trichomonas vaginalis [1]; isolate UOB-1, metronidazole-sensitive, anaerobic) was under 1 µg/mL and the “treatment failure with persistent disease” value (E. histolvtica) was 55%. The MLC (Tritrichomonas gallinae) was 2 µg/mL (≈ 11.7 µM), the “MLC (first of the two columns per drug)” value (Giardia lamblia) was under 1 µg/mL and the “MLC (second of the two columns per drug)” value (Giardia lamblia) was 2 µg/mL and < 1 µg/mL.
In the case of `Cc1ncc([N+](=O)[O-])n1C` [dimetridazole], the side effects (T. foetus; iv) is listed as “respiratory difficulty, ataxia and lung collapse”, the side effects (T. foetus; po) is listed as “rumen stasis and anorexia” and the effectiveness (T. foetus; multiple oral doses) is listed as “moderately effective”. For the same compound, the effectiveness (T. foetus; single intravenous administration) was “moderately effective”.
Cadmium Bacitracin showed an MIC (Trichomonas vaginalis [2]; T. vaginalis isolate 1910) of 150 µg/mL and an MIC (Trichomonas vaginalis [2]; T. vaginalis isolate UCH1) of 310 µg/mL.
Work on Cobalt Bacitracin yielded an MIC (Trichomonas vaginalis [2]; T. vaginalis isolate 1910) of 1250 µg/mL and an MIC (Trichomonas vaginalis [2]; T. vaginalis isolate UCH1) of 1250 µg/mL.
With Copper Bacitracin the MIC (Trichomonas vaginalis [2]; T. vaginalis isolate 1910) was 1250 µg/mL and the MIC (Trichomonas vaginalis [2]; T. vaginalis isolate UCH1) was 2500 µg/mL.
In the case of Ferrous Bacitracin, the MIC (Trichomonas vaginalis [2]; T. vaginalis isolate 1910) is reported as over 10000 µg/mL and the MIC (Trichomonas vaginalis [2]; T. vaginalis isolate UCH1) is reported as over 10000 µg/mL.
Compound Manganese Bacitracin has an MIC (Trichomonas vaginalis [2]; T. vaginalis isolate 1910) of 1260 µg/mL and an MIC (Trichomonas vaginalis [2]; T. vaginalis isolate UCH1) of 150 µg/mL.
For Nickel Bacitracin, the MIC (Trichomonas vaginalis [2]; T. vaginalis isolate 1910) was 2500 µg/mL and the MIC (Trichomonas vaginalis [2]; T. vaginalis isolate UCH1) was 1250 µg/mL.
